The target in assay [1] is GABRA1-GABRB3-GABRG2 chloride currents in HEK cells (Homo sapiens (Human), UniProt P14867+P18507). Put plainly: QPatch electrophysiological recording, % enhancement of GABA current (α1 PAM). Type of assay: cell-based. Particulars: approximately EC10 GABA, −60 mV, whole-cell patch clamp. The method, then:
(§1) Cell suspension containing HEK cells expressing GABRA2-GABRB2-GABRG2 was placed on the QPatch instrument in serum-free medium into the instrument's cell stirrer. The instrument washed the cells once using extracellular buffer and then dispensed them into the QPlate HT measurement plate at a concentration of 3-4-e6/ml. […] All recordings were made at room temperature (22-24° C.).
(§2) Current records were acquired at 1 KHz and filtered at 0.3 KHz using the Bessel filter. Series resistance compensation was set to 80% in the QPatch software.
(§3) All compounds were dissolved in dimethyl sulfoxide to make 30 mM or 10 mM stock solutions, which were then diluted to 1000 times the desired final concentration in dimethyl sulfoxide. These were diluted into extracellular solution to attain the final concentrations desired. […] This concentration of dimethyl sulfoxide was present in all samples.
(§4) Currents were recorded at −60 mV, using an approximately EC10 concentration of gamma-aminobutyric acid (GABA). This dose of gamma-aminobutyric acid was applied for 6 seconds and washed off using extracellular buffer as an unrecorded application using the pipetting system of the QPatch instrument. The same dose of gamma-aminobutyric acid was then applied for 9 seconds, then the test compound was co-applied with this dose of gamma-aminobutyric acid for 15 seconds, and washed off using the extracellular solution using the pipetting system of the QPatch instrument.
(§5) Compound effect (% enhancement of gamma-aminobutyric acid current) was calculated using the following formula: [((peak modulator current amplitude-leak)−(GABA current amplitude-leak))/(GABA current amplitude-leak)]*100, where ‘leak’ is leak current at −60 mV, ‘peak modulator current amplitude’ is the current elicited by co-application of gamma-aminobutyric acid and test compound, and ‘GABA current amplitude’ is the current elicited by application of gamma-aminobutyric acid alone.
The ability of the compounds of the formula (I) to modulate the GABA channels expressing the al subunit (or GABRA1) can also be measured using an assay analogous to that described above but replacing the GABRA2-GABRB2-GABRG2 gene construct with the GABRA1-GABRB3-GABRG2 gene construct. All other conditions remain the same including the same cell line and conditions for cell growth.
Background: Patch clamp records ionic current or voltage across a cell membrane.

For assay [2], the target named is GABRA2-GABRB2-GABRG2 chloride currents in HEK cells (Homo sapiens (Human), UniProt P18507+P47869). Description: QPatch electrophysiological recording, % enhancement of GABA current (α2 PAM). Type of assay: cell-based. Particulars: approximately EC10 GABA, −60 mV, whole-cell patch clamp. The method, then:
Human Embryonic Kidney (HEK) cells were transfected with a GABRA2-GABRB2-GABRG2 construct using standard techniques.
For QPatch electrophysiology testing, cells were harvested from flasks by enzymatic dissociation and resuspended in serum-free medium. Cells were typically used for electrophysiological experiments within 24 to 72 hours after splitting.
as §1, §2, §3, §4, §5

Assay [3] has as its target human recombinant GABA A receptor containing the alpha2, beta2, and gamma3 subunits (Homo sapiens, UniProt P47869+Q99928). Put plainly: Radioligand competition binding assay with [3H]Ro-15-1788 (Flumazenil).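 Note: membranes from HEK cells expressing the receptor, incubated with radioligand to equilibrium, filter-bound radioactivity counted, Ki reported as geometric mean of replicate runs.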
Description: Membranes were prepared from HEK cells expressing hGABA A alpha2beta2-gamma3 receptor, and validated to ascertain protein concentration, receptor expression and to determine the Kd of the flumazenil as well as the Ki of a standard set of compounds before being used to test new compounds.
100 ul of radioligand and 100 ul of membrane in 50 mM Tris-HCl and 0.05% F127 with 1 ul of test compound was incubated for 2 hours to allow the reaction to achieve equilibrium, and then harvested onto filter plates, dried and counted on a TopCount NXT. The data was analysed, and the Ki values were presented as the geometric mean of at least two replicates.

GABRA2-GABRB2-GABRG2 chloride currents in HEK cells, sequence (P47869 29-451): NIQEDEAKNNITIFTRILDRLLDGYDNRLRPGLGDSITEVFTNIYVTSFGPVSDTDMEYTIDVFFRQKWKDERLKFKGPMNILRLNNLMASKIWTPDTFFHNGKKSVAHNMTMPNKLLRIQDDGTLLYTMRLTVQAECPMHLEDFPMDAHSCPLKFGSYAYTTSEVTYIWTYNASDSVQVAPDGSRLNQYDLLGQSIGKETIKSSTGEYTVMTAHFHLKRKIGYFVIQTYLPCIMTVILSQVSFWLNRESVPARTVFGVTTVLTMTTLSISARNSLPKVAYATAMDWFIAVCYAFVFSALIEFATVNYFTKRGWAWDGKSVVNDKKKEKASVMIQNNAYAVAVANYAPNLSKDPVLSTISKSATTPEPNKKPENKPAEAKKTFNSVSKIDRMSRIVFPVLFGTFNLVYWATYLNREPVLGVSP
GABRA2-GABRB2-GABRG2 chloride currents in HEK cells, sequence (P47870 26-512 partner): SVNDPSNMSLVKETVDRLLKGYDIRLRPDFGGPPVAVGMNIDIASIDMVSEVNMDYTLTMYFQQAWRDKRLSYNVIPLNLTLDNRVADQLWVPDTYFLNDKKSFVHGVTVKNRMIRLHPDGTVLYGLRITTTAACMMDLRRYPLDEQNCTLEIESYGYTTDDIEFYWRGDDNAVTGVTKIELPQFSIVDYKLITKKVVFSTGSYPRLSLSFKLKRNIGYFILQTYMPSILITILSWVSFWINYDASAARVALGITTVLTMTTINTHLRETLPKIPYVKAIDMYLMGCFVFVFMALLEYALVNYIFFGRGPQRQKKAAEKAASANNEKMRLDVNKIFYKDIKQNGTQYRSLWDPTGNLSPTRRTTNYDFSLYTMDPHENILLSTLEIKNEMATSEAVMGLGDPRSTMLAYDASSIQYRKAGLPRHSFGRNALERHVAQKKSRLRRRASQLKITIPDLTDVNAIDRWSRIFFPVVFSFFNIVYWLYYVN
GABRA2-GABRB2-GABRG2 chloride currents in HEK cells, sequence (P18507 40-475): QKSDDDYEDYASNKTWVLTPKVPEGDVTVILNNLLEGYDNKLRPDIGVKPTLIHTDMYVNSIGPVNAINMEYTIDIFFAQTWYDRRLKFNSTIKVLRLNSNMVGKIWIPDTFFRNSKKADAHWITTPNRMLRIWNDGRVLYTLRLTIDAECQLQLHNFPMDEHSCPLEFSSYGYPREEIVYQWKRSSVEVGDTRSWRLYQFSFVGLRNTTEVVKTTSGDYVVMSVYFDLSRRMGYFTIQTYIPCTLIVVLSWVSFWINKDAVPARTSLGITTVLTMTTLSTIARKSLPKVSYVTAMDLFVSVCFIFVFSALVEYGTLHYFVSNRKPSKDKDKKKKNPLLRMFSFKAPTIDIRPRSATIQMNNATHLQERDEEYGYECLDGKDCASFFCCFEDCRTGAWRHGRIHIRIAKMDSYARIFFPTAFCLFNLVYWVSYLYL
GABRA1-GABRB3-GABRG2 chloride currents in HEK cells, sequence (P14867 28-456): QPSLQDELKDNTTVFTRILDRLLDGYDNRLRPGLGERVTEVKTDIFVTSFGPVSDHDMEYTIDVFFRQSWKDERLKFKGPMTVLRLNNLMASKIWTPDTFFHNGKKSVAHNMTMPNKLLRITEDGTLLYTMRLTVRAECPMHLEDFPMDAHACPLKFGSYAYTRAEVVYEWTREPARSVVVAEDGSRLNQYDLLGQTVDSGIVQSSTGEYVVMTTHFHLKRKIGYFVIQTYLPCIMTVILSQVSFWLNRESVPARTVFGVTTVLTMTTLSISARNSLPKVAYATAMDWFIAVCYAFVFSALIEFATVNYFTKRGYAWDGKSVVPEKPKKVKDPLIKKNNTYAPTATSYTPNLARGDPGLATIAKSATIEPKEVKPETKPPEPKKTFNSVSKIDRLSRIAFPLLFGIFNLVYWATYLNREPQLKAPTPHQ
GABRA1-GABRB3-GABRG2 chloride currents in HEK cells, sequence (P28472 26-473 partner): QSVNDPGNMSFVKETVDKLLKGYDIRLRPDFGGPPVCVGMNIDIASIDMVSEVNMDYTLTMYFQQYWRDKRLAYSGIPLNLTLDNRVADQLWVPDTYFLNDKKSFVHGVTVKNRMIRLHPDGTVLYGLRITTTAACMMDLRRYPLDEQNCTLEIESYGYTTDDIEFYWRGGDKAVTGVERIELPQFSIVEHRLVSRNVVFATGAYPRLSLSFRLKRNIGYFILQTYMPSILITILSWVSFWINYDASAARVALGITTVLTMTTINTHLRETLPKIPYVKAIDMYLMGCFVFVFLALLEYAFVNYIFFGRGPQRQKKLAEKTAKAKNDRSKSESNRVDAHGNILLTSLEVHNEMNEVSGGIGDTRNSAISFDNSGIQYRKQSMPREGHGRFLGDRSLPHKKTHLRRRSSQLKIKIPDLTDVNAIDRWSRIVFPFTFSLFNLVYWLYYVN
GABRA1-GABRB3-GABRG2 chloride currents in HEK cells, sequence (P18507 40-475): as the sequence (P18507 40-475) above

For `CCn1cnc2c(-c3ccc(F)c(-c4ccc(S(=O)(=O)C(C)C)cc4)c3)cnnc21` [Example 1, 7-Ethyl-4-[6-fluoro-4′-(propan-2-ylsulfonyl)biphenyl-3-yl]-7H-imidazo[4,5-c]pyridazine], the “α1 PAM (%)” value in assay [1] turned out to be 1.05%. Moreover, the “α2 PAM (%)” value in assay [2] worked out at 124%. Besides, the Ki in assay [3] stood at 31.1 nM.
Take `CCn1cnc2c(-c3ccc(F)c(-c4ccc(S(C)(=O)=O)cc4F)c3)cnnc21` [Example 2, 4-[2′,6-Difluoro-4′-(methylsulfonyl)biphenyl-3-yl]-7-ethyl-7H-imidazo[4,5-c]pyridazine]: the “α1 PAM (%)” value in assay [1] was −4.67%. In addition, the “α2 PAM (%)” value in assay [2] came to 1.69%. For the same molecule, in assay [3], the Ki was 10.9 nM.
In the case of `CCn1cnc2c(-c3ccc(F)c(-c4ccc(S(=O)(=O)CC)cc4C#N)c3)cnnc21` [Example 11, 5′-(7-Ethyl-7H-imidazo[4,5-c]pyridazin-4-yl)-4-(ethylsulfonyl)-2′-fluoro-[1,1′-biphenyl]-2-carbonitrile], the “α1 PAM (%)” value in assay [1] is listed as −0.474%. The “α2 PAM (%)” value in assay [2] worked out at 46.7%. Besides, the Ki in assay [3] was 39.2 nM.
For the molecule `CCn1cnc2c(-c3ccc(F)c(-c4ccc(S(C)(=O)=O)cc4OC)c3)cnnc21` [Example 12, 7-Ethyl-4-(6-fluoro-2′-methoxy-4′-(methylsulfonyl)-[1,1′-biphenyl]-3-yl)-7H-imidazo[4,5-c]pyridazine], the “α1 PAM (%)” value in assay [1] is 3.66%. Besides, the “α2 PAM (%)” value in assay [2] is recorded as 39.1%.
The like results for `CCn1cnc2c(-c3ccc(F)c(-c4ccc(S(=O)(=O)CC)cc4C(F)F)c3)cnnc21` [Example 14, 4-(2′-(Difluoromethyl)-4′-(ethylsulfonyl)-6-fluoro-[1,1′-biphenyl]-3-yl)-7-ethyl-7H-imidazo[4,5-c]pyridazine] were, in that order, 13.3% and 58.0%.
For `CCS(=O)(=O)c1ccc(-c2cc(-c3cnnc4c3ncn4C3CC3)ccc2F)cc1` [Example 19, 7-Cyclopropyl-4-[4′-(ethylsulfonyl)-6-fluorobiphenyl-3-yl]-7H-imidazo[4,5-c]pyridazine], in assay [1], the “α1 PAM (%)” value is recorded as −6.17%. Moreover, the “α2 PAM (%)” value in assay [2] came out at 84.3%. Besides, the inhibitory constant (Ki) in assay [3] came out at 31.1 nM.
For the molecule `CS(=O)(=O)c1ccc(-c2cc(-c3cnnc4c3ncn4C3CC3)ccc2F)cc1` [Example 21, 7-Cyclopropyl-4-(6-fluoro-4′-(methylsulfonyl)biphenyl-3-yl)-7H-imidazo[4,5-c]pyridazine], in assay [1], the “α1 PAM (%)” value is given as −5.78%. Also, in assay [2], the “α2 PAM (%)” value came to 31.6%. Besides, the Ki in assay [3] came to 43.3 nM.
In the same order, the values of `COc1cc(S(C)(=O)=O)ccc1-c1cc(-c2cnnc3c2ncn3C2CC2)ccc1F` [Example 24, 7-Cyclopropyl-4-(6-fluoro-2′-methoxy-4′-(methylsulfonyl)-[1,1′-biphenyl]-3-yl)-7H-imidazo[4,5-c]pyridazine] are −0.441%, 55.3% and 37.1 nM.
Regarding `CCS(=O)(=O)c1ccc(-c2cc(-c3cnnc4c3ncn4C3CC3)ccc2F)c(C#N)c1` [Example 25, 5′-(7-Cyclopropyl-7H-imidazo[4,5-c]pyridazin-4-yl)-4-(ethylsulfonyl)-2′-fluoro-[1,1′-biphenyl]-2-carbonitrile], the “α1 PAM (%)” value in assay [1] is −5.82%. Also, the “α2 PAM (%)” value in assay [2] is on record as 23.9%. Further, the Ki in assay [3] came to 170 nM.
In the case of `COc1cc(S(C)(=O)=O)ccc1-c1cc(-c2cnnc3c2ncn3C2CCC2)ccc1F` [Example 29, 7-Cyclobutyl-4-(6-fluoro-2′-methoxy-4′-(methylsulfonyl)-[1,1′-biphenyl]-3-yl)-7H-imidazol[4,5-c]pyridazine], the “α1 PAM (%)” value in assay [1] was 69.4%. The “α2 PAM (%)” value in assay [2] came out at 173%. Moreover, in assay [3], the Ki came to 101 nM.
The like results for `CCS(=O)(=O)c1ccc(-c2cc(-c3cnnc4c3ncn4C(C)C)ccc2F)cc1` [Example 31, 4-[4′-(Ethylsulfonyl)-6-fluorobiphenyl-3-yl]-7-(propan-2-yl)-7H-imidazo[4,5-c]pyridazine] were, in that order, 21.3%, 118% and 23.9 nM.
For `CC(C)n1cnc2c(-c3ccc(F)c(-c4ccc(S(N)(=O)=O)cc4)c3)cnnc21` [Example 32, 2′-Fluoro-5′-(7-isopropyl-7H-imidazo[4,5-c]pyridazin-4-yl)biphenyl-4-sulfonamide], the “α1 PAM (%)” value in assay [1] is listed as −29.5%. Moreover, the “α2 PAM (%)” value in assay [2] came to 77.2%. Also, the inhibition constant (Ki) in assay [3] stood at 5.82 nM.
In the case of `CNS(=O)(=O)c1ccc(-c2cc(-c3cnnc4c3ncn4C(C)C)ccc2F)cc1` [Example 33, 2′-Fluoro-N-methyl-5′-[7-(propan-2-yl)-7H-imidazo[4,5-c]pyridazin-4-yl]biphenyl-4-sulfonamide], the “α1 PAM (%)” value in assay [1] was −27.0%. Moreover, in assay [2], the “α2 PAM (%)” value came out at 79.9%. The Ki in assay [3] was found to be 16.4 nM.
The like results for `CCS(=O)(=O)c1ccc(-c2cc(-c3cnnc4c3ncn4C(C)C)ccc2F)c(F)c1` [Example 34, 4-[4′-(Ethylsulfonyl)-2′,6-difluorobiphenyl-3-yl]-7-(propan-2-yl)-7H-imidazol[4,5-c]pyridazine] were, in that order, 4.99%, 94.7% and 34.5 nM.
As for `COc1cc(S(C)(=O)=O)ccc1-c1cc(-c2cnnc3c2ncn3C(C)C)ccc1F` [Example 38, 4-(6-Fluoro-2′-methoxy-4′-(methylsulfonyl)-[1,1′-biphenyl]-3-yl)-7-isopropyl-7H-imidazo[4,5-c]pyridazine], the “α1 PAM (%)” value in assay [1] came to 14.6%. The “α2 PAM (%)” value in assay [2] was found to be 62.5%. Further, in assay [3], the Ki was 8.56 nM.
Turning to `CCS(=O)(=O)c1ccc(-c2cc(-c3cnnc4c3ncn4C(C)C)ccc2F)c(C#N)c1` [Example 41, 4-(Ethylsulfonyl)-2′-fluoro-5′-(7-isopropyl-7H-imidazo[4,5-c]pyridazin-4-yl)-[1,1′-biphenyl]-2-carbonitrile], the “α1 PAM (%)” value in assay [1] is recorded as 14.9%. In addition, the “α2 PAM (%)” value in assay [2] was 81.3%. In addition, the Ki in assay [3] is 29.1 nM.
In the case of `COc1cc(S(C)(=O)=O)ccc1-c1cc(-c2cnnc3c2ncn3C2CCCC2)ccc1F` [Example 42, 7-Cyclopentyl-4-(6-fluoro-2′-methoxy-4′-(methylsulfonyl)-[1,1′-biphenyl]-3-yl)-7H-imidazo[4,5-c]pyridazine], in assay [1], the “α1 PAM (%)” value is listed as 112%. Besides, in assay [2], the “α2 PAM (%)” value was found to be 199%. Further, the Ki in assay [3] is 91.4 nM.
In the case of `CCn1cnc2c(-c3ccc(O)c(-c4ccc(S(=O)(=O)CC)cc4OC)c3)cnnc21` [Example 48, 5-(7-Ethyl-7H-imidazo[4,5-c]pyridazin-4-yl)-4′-(ethylsulfonyl)-2′-methoxy-[1,1′-biphenyl]-2-ol], in assay [1], the “α1 PAM (%)” value is on record as −5.53%. Also, in assay [2], the “α2 PAM (%)” value is 47.8%.

One may read the Ki as the equilibrium dissociation constant of an inhibitor or competing ligand from its target.

The record behind these values is patent US8952008B2, “Chemical compounds” (Pfizer Limited, priority 2012, dated 2015).
